From patent US9200051B2, “Peptide compound” (TAKEDA PHARMACEUTICAL COMPANY LIMITED, priority 2013, dated 2015)
Like-named read-outs stand apart in the source and are kept apart here. Square brackets hold non-standard residues; d marks the D form. Peptide text beside a SMILES is read from it. * marks the point of attachment. αMeY = C[C@](N)(Cc1ccc(O)cc1)C(=O)O; αMeF = C[C@](N)(Cc1ccccc1)C(=O)O; Cha = N[C@@H](CC1CCCCC1)C(=O)O; Isonicotinoyl = O=C(c1ccncc1)*; Aib = CC(C)(N)C(=O)O; Bz = O=C(c1ccccc1)*

Legend:
Assay type in all cases: cell-based
human GIPR = biological target: T1, human GIPR (Homo sapiens, UniProt P48546); test: Agonist activity against human GIPR, CRE-luciferase reporter assay (rise in intracellular cAMP) in hGIPR/CRE-LUC/CHO-K1 cells
T1 construct: expressed in transfected cells; host or cells: CHO-K1 (CRE-LUC/CHO-K1), plasmid hGIPR/pMSRα-neo
T1 sequence (P48546 22-466): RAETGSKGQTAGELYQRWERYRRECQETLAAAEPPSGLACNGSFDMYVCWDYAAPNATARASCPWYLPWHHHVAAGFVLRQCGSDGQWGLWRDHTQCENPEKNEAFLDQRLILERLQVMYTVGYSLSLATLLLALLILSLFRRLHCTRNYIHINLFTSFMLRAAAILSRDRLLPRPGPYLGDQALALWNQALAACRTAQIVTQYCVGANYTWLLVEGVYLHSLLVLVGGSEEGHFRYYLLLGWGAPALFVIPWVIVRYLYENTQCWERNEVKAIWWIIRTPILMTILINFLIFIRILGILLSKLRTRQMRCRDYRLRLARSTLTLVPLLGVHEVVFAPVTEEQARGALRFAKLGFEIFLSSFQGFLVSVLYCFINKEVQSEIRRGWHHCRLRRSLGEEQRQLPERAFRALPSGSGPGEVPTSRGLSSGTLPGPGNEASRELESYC

human GLP-1R = biological target: T2, human GLP-1R (Homo sapiens, UniProt P43220); test: Agonist activity against human GLP-1R, CRE-luciferase reporter assay in hGLP-1R/CRE-luc/CHO-K1 cells
T2 construct: expressed in transfected cells; host or cells: CHO-K1, plasmids hGLP-1/pIRESneo3 and Cre-luc(Zeo)
T2 sequence (P43220 24-463): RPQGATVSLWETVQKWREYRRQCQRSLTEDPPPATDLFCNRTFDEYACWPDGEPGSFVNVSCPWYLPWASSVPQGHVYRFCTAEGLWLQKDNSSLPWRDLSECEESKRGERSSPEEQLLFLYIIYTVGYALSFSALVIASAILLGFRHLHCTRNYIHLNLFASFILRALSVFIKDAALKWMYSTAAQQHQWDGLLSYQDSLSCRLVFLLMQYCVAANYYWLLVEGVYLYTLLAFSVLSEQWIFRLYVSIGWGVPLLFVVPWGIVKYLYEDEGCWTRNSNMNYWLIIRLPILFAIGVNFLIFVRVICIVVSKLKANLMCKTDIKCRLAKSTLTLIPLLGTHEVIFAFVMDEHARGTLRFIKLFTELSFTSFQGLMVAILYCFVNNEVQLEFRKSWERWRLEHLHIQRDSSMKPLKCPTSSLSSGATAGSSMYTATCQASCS

human glucagon R = biological target: T3, human glucagon R (Homo sapiens, UniProt P47871); test: Agonist activity against human glucagon R, CRE-luciferase reporter assay in hGlucagonR/CRE-LUC/CHO-K1 cells
T3 construct: expressed in transfected cells; host or cells: CHO-K1 (CRE-LUC/CHO-K1), plasmid hGlucagonR/pMSRα-neo
T3 sequence (P47871 26-477): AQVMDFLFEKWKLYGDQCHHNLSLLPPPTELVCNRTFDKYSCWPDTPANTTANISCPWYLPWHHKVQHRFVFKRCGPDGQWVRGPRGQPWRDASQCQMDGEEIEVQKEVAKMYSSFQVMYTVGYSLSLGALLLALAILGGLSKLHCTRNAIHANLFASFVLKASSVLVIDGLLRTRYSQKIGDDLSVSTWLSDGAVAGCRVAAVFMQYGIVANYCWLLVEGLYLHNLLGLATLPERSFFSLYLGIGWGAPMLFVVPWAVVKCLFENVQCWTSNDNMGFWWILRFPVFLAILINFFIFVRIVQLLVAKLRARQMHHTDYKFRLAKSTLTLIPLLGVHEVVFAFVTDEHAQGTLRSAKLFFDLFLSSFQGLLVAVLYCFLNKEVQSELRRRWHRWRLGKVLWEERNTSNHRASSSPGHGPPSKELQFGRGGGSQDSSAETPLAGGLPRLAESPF

[1] = hGIPR/CRE-LUC/CHO-K1 cells, 4 hours incubation, 10 nM GIP = 100%, read-out: Agonist activity (EC50) hGIPR
[2] = hGLP-1R/CRE-luc/CHO-K1 cells, 4 hours incubation, 10 nM GLP-1 = 100%, read-out: Agonist activity (EC50) hGLP-1R
[3] = hGlucagonR/CRE-LUC/CHO-K1 cells, 4 hours incubation, 10 nM glucagon = 100%, read-out: Agonist activity (EC50) hGCGR

CC(C)C[C@H](NC(=O)[C@H](CC(C)C)NC(=O)[C@H](Cc1c[nH]c2ccccc12)NC(=O)[C@H](CCCCN)NC(=O)[C@@H](NC(=O)[C@H](Cc1ccccc1)NC(=O)[C@H](CCC(=O)O)NC(=O)[C@H](C)NC(=O)[C@H](CCC(N)=O)NC(=O)[C@H](C)NC(=O)[C@H](CCC(N)=O)NC(=O)[C@H](CCCCN)NC(=O)[C@H](CC(=O)O)NC(=O)[C@H](CC(C)C)NC(=O)[C@H](CC1CCCCC1)NC(=O)[C@H](CCCCN)NC(=O)C(C)(C)NC(=O)[C@H](Cc1ccc(O)cc1)NC(=O)[C@H](CC(=O)O)NC(=O)[C@H](CO)NC(=O)[C@@H](NC(=O)[C@](C)(Cc1ccccc1)NC(=O)[C@@H](NC(=O)CNC(=O)[C@H](CCC(=O)O)NC(=O)C(C)(C)NC(=O)[C@@H](N)Cc1ccc(O)cc1)[C@@H](C)O)[C@@H](C)O)C(C)C)C(=O)N[C@@H](CCCCN)C(=O)NCC(=O)NCC(=O)N1CCC[C@H]1C(=O)N[C@@H](CO)C(=O)N[C@@H](CO)C(=O)NCC(=O)N[C@@H](C)C(=O)N1CCC[C@H]1C(=O)N1CCC[C@H]1C(=O)N1CCC[C@H]1C(=O)N[C@@H](CO)C(=O)N[C@@H](CCCCN)C(N)=O [Example 16] (H-Y[Aib]EGT[αMeF]TSDY[Aib]K[Cha]LDKQAQAEFVKWLLKGGPSSGAPPPSK-NH2)
EC50 (human GIPR): 0.0091 nM
EC50 (human GLP-1R): 0.015 nM
EC50 (human glucagon R): > 1000 nM

CC[C@H](C)[C@H](NC(=O)C(C)(C)NC(=O)[C@H](Cc1ccc(O)cc1)NC(=O)[C@H](CC(=O)O)NC(=O)[C@H](CO)NC(=O)[C@@H](NC(=O)[C@](C)(Cc1ccccc1)NC(=O)[C@@H](NC(=O)CNC(=O)[C@H](CCC(=O)O)NC(=O)C(C)(C)NC(=O)[C@@H](N)Cc1ccc(O)cc1)[C@@H](C)O)[C@@H](C)O)C(=O)N[C@@](C)(Cc1ccc(O)cc1)C(=O)N[C@@H](CC(C)C)C(=O)N[C@@H](CC(=O)O)C(=O)N[C@@H](CCCCN)C(=O)N[C@@H](CCC(N)=O)C(=O)N[C@@H](C)C(=O)N[C@@H](CCC(N)=O)C(=O)N[C@@H](C)C(=O)N[C@@H](CCC(=O)O)C(=O)N[C@@H](Cc1ccccc1)C(=O)N[C@H](C(=O)N[C@@H](CCCCN)C(=O)N[C@@H](Cc1c[nH]c2ccccc12)C(=O)N[C@@H](CC(C)C)C(=O)N[C@@H](CC(C)C)C(=O)N[C@@H](CCCCN)C(=O)NCC(=O)NCC(=O)N1CCC[C@H]1C(=O)N[C@@H](CO)C(=O)N[C@@H](CO)C(=O)NCC(=O)N[C@@H](C)C(=O)N1CCC[C@H]1C(=O)N1CCC[C@H]1C(=O)N1CCC[C@H]1C(=O)N[C@@H](CO)C(=O)N[C@@H](CCCCN)C(N)=O)C(C)C [Example 17] (H-Y[Aib]EGT[αMeF]TSDY[Aib]I[αMeY]LDKQAQAEFVKWLLKGGPSSGAPPPSK-NH2)
EC50 (human GIPR): 0.014 nM
EC50 (human GLP-1R): 0.018 nM
EC50 (human glucagon R): > 1000 nM

CC[C@H](C)[C@H](NC(=O)C(C)(C)NC(=O)[C@H](Cc1ccc(O)cc1)NC(=O)[C@H](CC(=O)O)NC(=O)[C@H](CO)NC(=O)[C@@H](NC(=O)[C@](C)(Cc1ccccc1)NC(=O)[C@@H](NC(=O)CNC(=O)[C@H](CCC(=O)O)NC(=O)C(C)(C)NC(=O)[C@H](Cc1ccc(O)cc1)NC(C)=O)[C@@H](C)O)[C@@H](C)O)C(=O)NC(C)(C)C(=O)N[C@@H](CC(C)C)C(=O)N[C@@H](CC(=O)O)C(=O)N[C@@H](CCCCN)C(=O)N[C@@H](CCC(N)=O)C(=O)N[C@@H](C)C(=O)N[C@@H](CCC(N)=O)C(=O)N[C@@H](C)C(=O)N[C@@H](CCC(=O)O)C(=O)N[C@@H](Cc1ccccc1)C(=O)N[C@H](C(=O)N[C@@H](CCCCN)C(=O)N[C@@H](Cc1c[nH]c2ccccc12)C(=O)N[C@@H](CC(C)C)C(=O)N[C@@H](CC(C)C)C(=O)N[C@@H](CCCCN)C(=O)NCC(=O)NCC(=O)N1CCC[C@H]1C(=O)N[C@@H](CO)C(=O)N[C@@H](CO)C(=O)NCC(=O)N[C@@H](C)C(=O)N1CCC[C@H]1C(=O)N1CCC[C@H]1C(=O)N1CCC[C@H]1C(=O)N[C@@H](CO)C(=O)N[C@@H](CCCCN)C(N)=O)C(C)C [Example 18] (Ac-Y[Aib]EGT[αMeF]TSDY[Aib]I[Aib]LDKQAQAEFVKWLLKGGPSSGAPPPSK-NH2)
EC50 (human GIPR; [1]): 0.027 nM
EC50 (human GLP-1R; [2]): 0.13 nM
EC50 (human glucagon R; [3]): > 1000 nM

CC[C@H](C)[C@H](NC(=O)C(C)(C)NC(=O)[C@H](Cc1ccc(O)cc1)NC(=O)[C@H](CC(=O)O)NC(=O)[C@H](CO)NC(=O)[C@@H](NC(=O)[C@](C)(Cc1ccccc1)NC(=O)[C@@H](NC(=O)CNC(=O)[C@H](CCC(=O)O)NC(=O)C(C)(C)NC(=O)[C@H](Cc1ccc(O)cc1)NC(=O)c1ccccc1)[C@@H](C)O)[C@@H](C)O)C(=O)NC(C)(C)C(=O)N[C@@H](CC(C)C)C(=O)N[C@@H](CC(=O)O)C(=O)N[C@@H](CCCCN)C(=O)N[C@@H](CCC(N)=O)C(=O)N[C@@H](C)C(=O)N[C@@H](CCC(N)=O)C(=O)N[C@@H](C)C(=O)N[C@@H](CCC(=O)O)C(=O)N[C@@H](Cc1ccccc1)C(=O)N[C@H](C(=O)N[C@@H](CCCCN)C(=O)N[C@@H](Cc1c[nH]c2ccccc12)C(=O)N[C@@H](CC(C)C)C(=O)N[C@@H](CC(C)C)C(=O)N[C@@H](CCCCN)C(=O)NCC(=O)NCC(=O)N1CCC[C@H]1C(=O)N[C@@H](CO)C(=O)N[C@@H](CO)C(=O)NCC(=O)N[C@@H](C)C(=O)N1CCC[C@H]1C(=O)N1CCC[C@H]1C(=O)N1CCC[C@H]1C(=O)N[C@@H](CO)C(=O)N[C@@H](CCCCN)C(N)=O)C(C)C [Example 19] (Bz-Y[Aib]EGT[αMeF]TSDY[Aib]I[Aib]LDKQAQAEFVKWLLKGGPSSGAPPPSK-NH2)
EC50 (human GIPR): 0.024 nM
EC50 (human GLP-1R): 0.037 nM
EC50 (human glucagon R): > 1000 nM

CC[C@H](C)[C@H](NC(=O)C(C)(C)NC(=O)[C@H](Cc1ccc(O)cc1)NC(=O)[C@H](CC(=O)O)NC(=O)[C@H](CO)NC(=O)[C@@H](NC(=O)[C@](C)(Cc1ccccc1)NC(=O)[C@@H](NC(=O)CNC(=O)[C@H](CCC(=O)O)NC(=O)C(C)(C)NC(=O)[C@H](Cc1ccc(O)cc1)NC(=O)c1ccncc1)[C@@H](C)O)[C@@H](C)O)C(=O)NC(C)(C)C(=O)N[C@@H](CC(C)C)C(=O)N[C@@H](CC(=O)O)C(=O)N[C@@H](CCCCN)C(=O)N[C@@H](CCC(N)=O)C(=O)N[C@@H](C)C(=O)N[C@@H](CCC(N)=O)C(=O)N[C@@H](C)C(=O)N[C@@H](CCC(=O)O)C(=O)N[C@@H](Cc1ccccc1)C(=O)N[C@H](C(=O)N[C@@H](CCCCN)C(=O)N[C@@H](Cc1c[nH]c2ccccc12)C(=O)N[C@@H](CC(C)C)C(=O)N[C@@H](CC(C)C)C(=O)N[C@@H](CCCCN)C(=O)NCC(=O)NCC(=O)N1CCC[C@H]1C(=O)N[C@@H](CO)C(=O)N[C@@H](CO)C(=O)NCC(=O)N[C@@H](C)C(=O)N1CCC[C@H]1C(=O)N1CCC[C@H]1C(=O)N1CCC[C@H]1C(=O)N[C@@H](CO)C(=O)N[C@@H](CCCCN)C(N)=O)C(C)C [Example 20] (Isonicotinoyl-Y[Aib]EGT[αMeF]TSDY[Aib]I[Aib]LDKQAQAEFVKWLLKGGPSSGAPPPSK-NH2)
EC50 (human GIPR; [1]): 0.026 nM
EC50 (human GLP-1R; [2]): 0.13 nM
EC50 (human glucagon R; [3]): > 1000 nM
